Experimental data: patent publication US8791158B2, “Methods of treating meibomian gland dysfunction” (GTX, Inc., priority 2010, dated 2014)
Marks after values point to notes of the source that are not given here.

Assays:
[1] = test system: orchiectomized (ORX) rabbits; assay: Dose effect on palmitate:stearate ratio in tears, harderian and Meibomian glands, Example 5; assay type: in vivo, rabbit; settings: for Palmitate:stearate ratio in Meibomian gland / Palmitate:stearate ratio in harderian gland / Palmitate:Stearate Ratio in Tears: ORX rabbits; for Palmitate:stearate ratio in Meibomian gland / Palmitate:stearate ratio in harderian gland: mean; for Increase of lipid (palmitate:stearate) ratio in harderian glands: topical 1.25 mg/kg (highest dose tested); for Change in Meibomian gland lipids / Dose dependence of palmitate:stearate ratio in harderian glands / Dose dependence of palmitate:stearate ratio in tears: topical 0.625 and 1.25 mg/kg; for Palmitate:Stearate Ratio in Tears: day 15, mean
From the text: The goal of this study was to determine the effect of dosage amounts of Compounds 1 and 2 on tear composition.
Thirty New Zealand white rabbits weighing approximately 3 lbs were allowed to acclimate for two weeks before the start of the study Animals were weighed on day 0 of the study, randomized according to body weight and allotted to the following orchiectomized (ORX) dose groups:
(§1) Surgeries for the study were staggered to limit the maximum number of surgeries per day to six. One animal from each group was entered into the study every day and castration was performed as described below. Animals were premedicated with glycopyrrolate (0.02 mg/kg) and anesthesia was induced with a combination of ketamine (15 mg/kg): medetomidine (0.25 mg/kg). Anesthesia was maintained with isoflurane (1 liter/hr). Orchiectomy was performed using a scrotal incision. Animals were reversed from anesthesia using atipamezole (1 mg/kg) SQ. Analgesia was provided with buprenorphine (0.05 mg/kg) SQ immediately after the animal's regained sternal recumbency.
Immediately after recovery from anesthesia, the animals were dosed with the appropriate test articles as indicated above. Drug dosing was performed once daily for 14 d. Blood samples were collected on day 11 of dosing at 0, 30, 60, 120, 240 and 1440 minutes post administration and to plasma separated for LCMS analysis of parent drug concentrations. Tears were collected using Schirmer tear strips (Alcon, Tex.) on day 0 before surgery and 24 hours after the last administration of drug (day 15). The tears were stored at −80° C. until shipment for lipid analysis. Lipids were hydrolyzed, extracted from the Schirmer strips, derivatized, and subjected to GC-FID to evaluate the lipid composition. The samples were evaluated for the presence of 28 saturated and unsaturated fatty acids that included methyl caprate (C10:0), methyl laurate (C12:0), methyl 11-dodecenoate (C12:1), methyl myri state (C14:0), methyl myristoleate (C14:1), methyl palmitate (C16:0), methyl palmitoleate (C16:1), methyl stearate (C18:0), methyl oleate (C18:1), methyl vaccenate (C18:1), methyl linoleate (C18:2), methyl gamma linoleate (C18:3), methyl linoleate (C18:3), methyl arachidate (C20:0), methyl 11-eicosenoate (C20:1), methyl 11,14 eicosadinoate (C20:2), methyl 8,11,14 eicosatrienoate (C20:3), methyl eicosapentaenoate (C20:5), methyl behenate (C22:0), methyl erucate (C22:1), methyl 13,16 docosaenoate (C22:2), methyl docosatetraenoate (C22:4), methyl docosapentaenoate (C22:5), methyl docosahexaenoate (C22:6), methyl lignocerate and (C24:0), methyl nervonate (C24:1). Area under the curve for each individual peak was determined using the GC ChemStation software. To normalize for the tear content, the lipid composition was expressed as a ratio of the lipid that was most affected by castration (palmitate) to one which remained relatively constant (stearate).
At the end of the study, the animals were euthanatized. The harderian and Meibomian glands were collected for lipid analysis and snap frozen using an ethanol: dry ice bath. Samples were stored at −80 C until ready to ship for analysis.
Lipids in rabbit tears are derived from secretions of the harderian and Meibomian glands. Lipid content in the glands was assayed using GCMS. […] The lipid ratio was increased by more than 2-fold by Compound 1 (1.25 mg/kg), while the effect of Compound 2 was even greater with an almost 3-fold increase in the lipid ratio seen at the highest dose tested (1.25 mg/kg).

[2] = test system: acute orchiectomized (ORX) rabbit model; assay: Palmitate:stearate ratios in tears, Meibomian glands and harderian glands, Example 4; assay type: in vivo; settings: for Palmitate:stearate ratios in Meibomian glands / Palmitate:stearate ratios in harderian glands: ORX rabbits, topical 2.5 mg/kg once daily 14 d, mean
From the text: The goal of this study was to compare the effects of Compound 1 and Compound 2, two tissue selective SARMs with differing androgenic potential, in modulating tear composition in an acute orchiectomized (ORX) rabbit model.
Twenty New Zealand white rabbits weighing approximately 3 lbs were allowed to acclimate for two weeks before the start of the study Animals were weighed on day 0 of the study, randomized according to body weight and allotted to the following dose groups:
as §1, with “either sham or orchiectomy” for “castration”, “below” for “below.”, “ORX” for “Orchiectomy”, “incision. For the sham operated animals, the scrotal sac was incised and skin closed using tissue glue” for “incision.”, “revived” for “reversed”, “mg/kg).” for “mg/kg) SQ immediately after the animal's regained sternal recumbency.”
Immediately after the animals had recovered from anesthesia, they were dosed with the appropriate test articles as indicated above. Drug dosing was done once daily for 14 d. Blood samples were collected at 30, 60, 120, 240 and 1440 minutes after dose administration on day 11 for pharmacokinetic analyses. Plasma was separated for HPLC analysis of parent drug concentrations. Tears were collected using Schirmer tear strips (Alcon, Tex.) on day 0 before surgery and 24 hours after the last administration of drug (day 15). The tears were stored at −80° C. until shipment for analysis. Lipids were hydrolyzed, extracted from the Schirmer strips, derivatized, and subjected to GC-FID to evaluate the lipid composition. The samples were evaluated for the presence of 28 saturated and unsaturated fatty acids that included methyl caprate (C10:0), methyl laurate (C12:0), methyl 11-dodecenoate (C12:1), methyl myristate (C14:0), methyl myristoleate (C14:1), methyl palmitate (C16:0), methyl palmitoleate (C16:1), methyl stearate (C18:0), methyl oleate (C18:1), methyl vaccenate (C18:1), methyl linoleate (C18:2), methyl gamma linoleate (C18:3), methyl linoleate (C18:3), methyl arachidate (C20:0), methyl 11-eicosenoate (C20:1), methyl 11,14 eicosadinoate (C20:2), methyl 8,11,14 eicosatrienoate (C20:3), methyl eicosapentaenoate (C20:5), methyl behenate (C22:0), methyl erucate (C22:1), methyl 13,16 docosaenoate (C22:2), methyl docosatetraenoate (C22:4), methyl docosapentaenoate (C22:5), methyl docosahexaenoate (C22:6), methyl lignocerate (C24:0), and methyl nervonate (C24:1). Area under the curve for each individual peak was determined using the GC ChemStation software. To normalize for the tear content, the lipid composition was expressed as a ratio of the lipid that was most affected by castration (palmitate) to one which remained relatively constant (stearate).
At the end of the study, the animals were euthanatized. The left harderian and Meibomian glands were collected for lipid analysis and snap frozen using an ethanol:dry ice bath. Samples were stored at −80° C. until shipment for analysis. The right eyelids were embedded in OCT medium and shipped to Paragon Biosciences (Washington D.C.) for histology and Oil-red-O quantification of lipids. Images of three separate fields were taken from each eyelid at random and the amount of cells staining red in each field was scored using commercially available software. A scoring scheme was adopted with a scale of 0-4 to evaluate the staining intensities with 0=<1% cells stained, 1+ for 2-5% of cells stained, 2+=6-10% stain, 3+=11-20% staining, 4+ for >21% cells stained.

| Structure (SMILES) | Palmitate:stearate ratio in Meibomian gland ([1]; topical 0.625 mg/kg) | Palmitate:stearate ratio in harderian gland ([1]; topical 0.625 mg/kg) | Palmitate:stearate ratio in Meibomian gland ([1]; topical 1.25 mg/kg) | Palmitate:stearate ratio in harderian gland ([1]; topical 1.25 mg/kg) | Increase of lipid (palmitate:stearate) ratio in harderian glands [1] | Change in Meibomian gland lipids [1] | Dose dependence of palmitate:stearate ratio in harderian glands [1] | Dose dependence of palmitate:stearate ratio in tears [1] | Palmitate:stearate ratios in Meibomian glands [2] | Palmitate:stearate ratios in harderian glands [2] | Change of palmitate:stearate ratio in Meibomian glands ([2]; topical 2.5 mg/kg) | Change of palmitate:stearate ratio in harderian glands compared to control animals ([2]; topical 2.5 mg/kg) | Palmitate:Stearate Ratio in Tears ([1]; topical 0.625 mg/kg once daily 14 d) | Palmitate:Stearate Ratio in Tears ([1]; topical 1.25 mg/kg once daily 14 d) | Increase of tear palmitate:stearate ratio over intact vehicle treated animals ([2]; topical 2.5 mg/kg) [fold] | Increase of tear palmitate:stearate ratio relative to ORX vehicle-treated animals ([2]; topical 2.5 mg/kg) |
| --- | --- | --- | --- | --- | --- | --- | --- | --- | --- | --- | --- | --- | --- | --- | --- | --- |
| C[C@](O)(COc1ccc(C#N)cc1)C(=O)Nc1ccc(C#N)c(C(F)(F)F)c1 [Compound 1, (S)—N-(4-Cyano-3-(trifluoromethyl)phenyl)-3-(4-cyanophenoxy)-2-hydroxy-2-methylpropanamide] | 3.29 | 3.45^a,b | 3.68 | 4.87^a,b | more than 2 fold | No statistically significant change | dose dependent increase | no significant dose dependent changes | 4.07^b | 5.1 | two fold increase | no change | – | – | – | – |
| C[C@](O)(COc1ccc(C#N)c(F)c1)C(=O)Nc1ccc(C#N)c(C(F)(F)F)c1 [Compound 2, (S)—N-(4-cyano-3-(trifluoromethyl)phenyl)-3-(4-cyano-3-fluorophenoxy)-2-hydroxy-2-methylpropanamide] | 3.36 | 6.09^a,b | 3.31 | 5.30^a,b | ~3 fold | No statistically significant change | dose dependent increase | dose dependent increase | 2.82 | 7.76 | mild increase | significant increase | 2.67^a,b | 3.93^a,b | ~1.5 | approximately 2.5 times |
